In patent US12343404B2, “Ligand-targeted cell conjugate (LTCC)-based anti-tumor immune cell” (priority 2020, dated 2025):

Test system: NK92-MI cells
Test: Influence of azido sugar on NK cell activity (CCK8, OD450)
Assay type: cell-based
Settings: final concentration 50 μM; 24 hours and 48 hours; vs 0.1% DMSO control
Protocol: This embodiment describes validation of influences of the added non-natural sugars on cell activities. The specific method is as follows: non-natural sugars were absorbed by cells; the cells were cultured for a period of time; then, OD450 was determined using a cell counting kit 8 (CCK8) (Beyotime), and a difference in cell activities of a group added with sugars and a group without sugars was analyzed.
The specific process is as follows: 1×10^5 pieces of NK cells were laid in a 96-pore plates; 0.1% DMSO was added into a control group, while Ac4ManNAz with a final concentration of 50 μM (the mount of the DMSO was equivalent to 0.1%) was added into an experimental group; then, the cells were cultured in an incubator at 37° C., and subsequently added with the CCK8 after 24 hours and 48 hours respectively; and after 2-hour incubation, OD450 was detected using a microplate reader.

CC(=O)OC[C@H]1OC(OC(C)=O)[C@@H](NC(=O)CN=[N+]=[N-])[C@@H](OC(C)=O)[C@@H]1OC(C)=O (stereo partly shown) [Ac4ManNAz, N-azidoacetylmannosamine-tetraacylated]
influence on cell activities (OD450, CCK8): not toxic to cells, but slightly promoted growth
